Data reported in publication PMC12017303 (Science Advances, 2025).
In brackets after ≈: the same amount, converted by molar mass.

What was measured:
SARS-CoV-2 M^Pro [1] = biological target: T1, SARS-CoV-2 M^Pro (Severe acute respiratory syndrome coronavirus 2, UniProt P0DTD1); test: biochemical
in vitro [2] = conditions: human
in vitro [3] = conditions: PAMPA, pH 7.4
SARS-CoV-2 M^Pro [4] = biological target: T1, SARS-CoV-2 M^Pro; test: biochemical; remark: listed apart in the source
in vitro [5] = conditions: mouse, microsomes, pH 7.4
[6] = tested on: SARS-CoV-2 WA.1 (icSARS-CoV-2-mNG) in A549-ACE2^h; test: microbe, parasite or virus in culture; format: cell-based; conditions: Severe acute respiratory syndrome coronavirus 2, read-out: Viral replication in A549-ACE2^h EC50: WA.1
in vitro [7] = conditions: human, microsomes, pH 7.4
[8] = tested on: human cytochrome P450 (CYP) isoforms
SARS-CoV-1 M^Pro = SARS-CoV-1 M^Pro (Severe acute respiratory syndrome coronavirus, UniProt P0C6X7); test: biochemical
[9] = tested on: SARS-CoV-2 WA.1 replicon in Vero ACE2 TMPRSS2; test: microbe, parasite or virus in culture; format: cell-based; conditions: Severe acute respiratory syndrome coronavirus 2, Vero, read-out: Replicon replication in Vero ACE2 TMPRSS2 EC50: WA.1
in vitro [10] = conditions: plasma
SARS-CoV-2 M^Pro [11] = biological target: T1, SARS-CoV-2 M^Pro; format: biochemical
[12] = tested on: SARS-CoV-2 BA.2.86.1 replicon in Vero ACE2 TMPRSS2; test: microbe, parasite or virus in culture; format: cell-based; conditions: Severe acute respiratory syndrome coronavirus 2, Vero, read-out: Replicon replication in Vero ACE2 TMPRSS2 EC50: BA.2.86.1
[13] = biological target: SARS-CoV-2 M^Pro (Cys^145) (Severe acute respiratory syndrome coronavirus 2, UniProt P0DTD1); format: binding
CYP2C8 = CYP2C8 (Homo sapiens, UniProt P10632); conditions: 10 μM
[14] = in vivo
in vivo [15] = conditions: mouse
in vivo [16] = conditions: male, CD-1, mouse; for AUC(0-t): AUClast
physchem = conditions: pH 7.4, aqueous buffer, kinetic from dmso stock
P-gp (MDR1) = test: in vitro; conditions: dog
[17] = male, CD-1, mouse, in vivo
SARS-CoV Urbani = test: microbe, parasite or virus in culture; format: cell-based; parameters: SI90 / SI50: unit not given beside the values
MERS-CoV EMC = test: microbe, parasite or virus in culture; format: cell-based; parameters: SI50 / SI90: unit not given beside the values
HCoV Alpha 229E = test: organism not typed; format: cell-based, HCoV 229E; parameters: SI50 / SI90: unit not given beside the values
[18] = tested on: SARS-CoV-2 B.1.617.2 (delta); format: cell-based; parameters: SI50 / SI90: unit not given beside the values
[19] = tested on: SARS-CoV-2 BA.2 (omicron); test: microbe, parasite or virus in culture; format: cell-based; parameters: SI50 / SI90: unit not given beside the values
HCoV Beta OC43 = test: microbe, parasite or virus in culture; format: cell-based; parameters: SI90 / SI50: unit not given beside the values
[20] = pH 7.4, plasma protein binding (PPB)
[21] = Severe acute respiratory syndrome coronavirus, Vero C1008
[22] = Middle East respiratory syndrome-related coronavirus, Vero C1008

Chain of CYP2C8 (P10632 whole entry): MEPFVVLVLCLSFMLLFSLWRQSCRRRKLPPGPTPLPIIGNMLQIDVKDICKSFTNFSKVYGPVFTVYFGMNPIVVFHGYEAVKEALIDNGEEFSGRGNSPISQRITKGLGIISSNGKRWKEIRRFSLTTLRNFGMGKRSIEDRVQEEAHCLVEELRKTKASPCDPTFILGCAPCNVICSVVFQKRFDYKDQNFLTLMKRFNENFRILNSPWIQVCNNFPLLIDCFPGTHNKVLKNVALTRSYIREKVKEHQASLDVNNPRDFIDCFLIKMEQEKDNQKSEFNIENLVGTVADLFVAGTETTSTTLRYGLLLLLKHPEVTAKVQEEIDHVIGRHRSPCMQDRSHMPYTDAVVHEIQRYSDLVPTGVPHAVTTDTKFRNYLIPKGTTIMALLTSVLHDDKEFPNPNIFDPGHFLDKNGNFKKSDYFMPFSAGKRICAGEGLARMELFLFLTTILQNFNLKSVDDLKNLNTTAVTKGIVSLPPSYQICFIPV

## O=C1CCN(Cc2cccc(F)c2)C(=O)N1c1cncc2ccccc12 [AVI-3780]
SARS-CoV-2 M^Pro [1]
  IC50: 0.8 µM
  M^Pro inhibition, result in words: submicromolar potencies
In vitro [2]
  CC50: > 100 µM
  viability at 100 µM: 100%
In vitro [3]
  Papp: 19.6 ×10⁻⁶ cm/s

## C#CCn1c(-c2cccc(Cl)c2)c(-n2nnc3ccccc32)c(=O)n(-c2cncc3ccccc23)c1=O [AVI-4692]
SARS-CoV-2 M^Pro [1]
  IC50: 0.037 µM
SARS-CoV-2 M^Pro [4]
  kinact/KI: 27000 M⁻¹ s⁻¹
In vitro [5]
  half-life: > 2 h
[6]
  EC50: 0.0068 µM
In vitro [7]
  half-life: > 2 h
In vitro [3]
  Papp: 31.8 ×10⁻⁶ cm/s
[8]; 10 μM
  CYP inhibition, result in words: somewhat more potent inhibitor of both CYP2C8 and CYP3A4
SARS-CoV-1 M^Pro
  IC50: 0.12 µM
[9]
  EC50: 0.026 µM
In vitro [10]; [20]
  fraction unbound: < 0.01
SARS-CoV-2 M^Pro [11]
  M^Pro activity after dialysis: activity was not regained
[12]
  EC50: 0.027 µM
[13]
  covalent adduct by whole protein MS: mass shifts consistent with modification at a single site

## O=C1CCN(Cc2csc(Cl)c2)C(=O)N1Cc1ccc[nH]c1=O [AVI-3570]
SARS-CoV-2 M^Pro [1]
  IC50: 1.5 µM
In vitro [2]
  CC50: > 100 µM
  viability at 100 µM: 100%

## O=C1CCN(Cc2cccc(Cl)c2)C(=O)N1c1cncc2ccccc12 [AVI-3779]
SARS-CoV-2 M^Pro [1]
  IC50: 0.66 µM
  M^Pro inhibition, result in words: submicromolar potencies
In vitro [2]
  CC50: > 100 µM
  viability at 100 µM: 100%
In vitro [3]
  Papp: 23.9 ×10⁻⁶ cm/s

## C#CCn1c(C)c(-n2nnc3cc(F)c(F)cc32)c(=O)n(-c2cncc3ccccc23)c1=O [AVI-4773]
CYP2C8
  CYP2C8 inhibition: ~ 45%
[14]; mouse, po
  exposure in BALF: ~ 4400 nM
In vitro [5]
  half-life: > 2 h
[6]
  EC50: 0.019 µM
In vivo [15]
  Kp: ~0.08
In vitro [7]
  half-life: > 2 h
[8]; human, pH 7.4
  inhibition across the CYP panel: ≤ 25%
In vivo [16]; F
  bioavailability: 110%
In vivo [16]; iv, 10 mg/kg
  MRT inf: 2.06 h
  clearance: 9.57 mL/min/kg
  half-life: 1.22 h
  AUC(0-t): 17200 ng·h/mL
In vivo [16]; iv, 10 mg/kg, AUCINF
  AUC(0-inf): 17400 ng·h/mL
In vivo [16]; iv, 10 mg/kg, Vss
  Vd: 1.18 L/kg
In vivo [16]; oral bioavailability (%F)
  bioavailability: > 100%
In vivo [16]; po, 50 mg/kg
  half-life: 13 h
  AUC(0-t): 94700 ng·h/mL
In vivo [16]; po, 50 mg/kg, AUCINF
  AUC(0-inf): 273000 ng·h/mL
In vivo [16]; po, 50 mg/kg, AUCinf
  AUC(0-inf): 272000 ng·h/mL
In vivo [16]; po, 50 mg/kg, CMax
  Cmax: 14900 ng/mL
In vivo [16]; po, 50 mg/kg, Cmax
  Cmax: 14900 ng/mL
In vivo [16]; po, 50 mg/kg, TMax
  Tmax: 0.5 h
In vivo [16]; po, 50 mg/kg, Tmax
  Tmax: 0.5 h
SARS-CoV-1 M^Pro
  IC50: 0.095 µM
physchem
  solubility: 431 µM (≈ 192 µg/mL)
P-gp (MDR1); MDCK-MDR1
  Papp B→A: 70.8 ×10⁻⁶ cm/s
P-gp (MDR1); MDCK-MDR1, MDCK AB
  Papp A→B: 17.8 ×10⁻⁶ cm/s
[9]
  EC50: 0.06 µM
In vitro [10]; pH 7.4, PPB
  fraction unbound: 0.19
In vitro [10]; [20]
  fraction unbound: 0.17
[17]
  Mouse F: 110
  free concentration in plasma: 4.045 µM
[17]; po, 50 mg/kg
  AUClast: 94700 ng·h/mL
  Plasma T½: 13 h
SARS-CoV-2 M^Pro [11]
  M^Pro activity after dialysis: activity was not regained
[12]
  EC50: 0.049 µM
[13]
  covalent adduct by whole protein MS: mass shifts consistent with modification at a single site

## Cn1cnc(Cn2c(=O)[nH]/c(=N\c3cc4cn(C)nc4cc3Cl)n(Cc3cc(F)c(F)cc3F)c2=O)n1 [ensitrelvir, reference compound]
[14]; CD1, mouse
  Brain, Mean: 47.9 ng/g

## O=c1[nH]c(-c2cccc(Cl)c2)c(-n2nnc3ccccc32)c(=O)n1-c1cncc2ccccc12 [AVI-4303]
SARS-CoV-2 M^Pro [1]
  IC50: 0.3 µM
In vitro [2]
  CC50: > 100 µM
  viability at 100 µM: 92.3%
In vitro [3]
  Papp: 6.6 ×10⁻⁶ cm/s

## O=c1cc(-c2cccc(Cl)c2)[nH]c(=O)n1-c1cncc2ccccc12 [AVI-4301]
SARS-CoV-2 M^Pro [1]
  IC50: 6.4 µM
In vitro [2]
  CC50: > 100 µM
  viability at 100 µM: 100%
In vitro [3]
  Papp: 31.8 ×10⁻⁶ cm/s

## CCC(CC)COC(=O)[C@H](C)N[P@](=O)(OC[C@H]1O[C@@](C#N)(c2ccc3c(N)ncnn23)[C@H](O)[C@@H]1O)Oc1ccccc1 [remdesivir, reference compound]
SARS-CoV Urbani
  SI50: > 83
  SI90: > 71
SARS-CoV Urbani; [21]
  EC50: 0.12 µM
  EC90: 0.14 µM
MERS-CoV EMC
  SI50: 540
  SI90: 51
MERS-CoV EMC; [22]
  EC50: 0.0037 µM
  EC90: 0.039 µM

## O=C1CCN(Cc2csc(Cl)c2)C(=O)N1c1cncc2ccccc12 [AVI-3778]
SARS-CoV-2 M^Pro [1]
  IC50: 0.85 µM
  M^Pro inhibition, result in words: submicromolar potencies
In vitro [2]
  CC50: > 100 µM
  viability at 100 µM: 95.7%
In vitro [3]
  Papp: 26.4 ×10⁻⁶ cm/s

## O=C1CCN(Cc2cccc(Cl)c2)C(=O)N1Cc1ccc[nH]c1=O [AVI-3993]
SARS-CoV-2 M^Pro [1]
  IC50: 8.5 µM

## O=c1nc(NO)ccn1[C@@H]1O[C@H](CO)[C@@H](O)[C@H]1O [EIDD-1931, reference compound]
HCoV Alpha 229E
  SI50: > 23
  SI90: > 27
HCoV Alpha 229E; read-out: EC50
  EC50: 0.44 µM
HCoV Alpha 229E; read-out: EC90
  EC90: 0.37 µM
[18]
  EC50: 0.17 µM
  EC90: 0.05 µM
  SI50: 210
  SI90: 720
[19]
  SI50: 810
  SI90: 1000
[19]; read-out: EC50
  EC50: 0.053 µM
[19]; read-out: EC90
  EC90: 0.043 µM
Huh7
  CC50: > 10 µM
HCoV Beta OC43
  SI50: 170
  SI90: 190
HCoV Beta OC43; read-out: EC50
  EC50: 0.035 µM
HCoV Beta OC43; read-out: EC90
  EC90: 0.032 µM
Rhabdomyosarcoma
  CC50: 6.1 µM

## O=C1CCN(Cc2ccsc2)C(=O)N1Cc1ccc[nH]c1=O [AVI-3320]
SARS-CoV-2 M^Pro [1]
  IC50: 23 µM
In vitro [2]
  CC50: > 100 µM
  viability at 100 µM: 100%

## O=C1CCN(Cc2cc(Cl)cs2)C(=O)N1Cc1ccc[nH]c1=O [AVI-3318]
SARS-CoV-2 M^Pro [1]
  IC50: 4.6 µM
In vitro [2]
  CC50: > 100 µM
  viability at 100 µM: 88.9%

## O=C1CCN(Cc2cccs2)C(=O)N1Cc1ccc[nH]c1=O [AVI-1084]
In vitro [2]
  CC50: > 100 µM
  viability at 100 µM: 100%
